Assay results: ChEMBL document CHEMBL6078612, “Novel strategies based on natural products and synthetic derivatives to overcome resistance in Mycobacterium tuberculosis” (Eur J Med Chem, 2024)
In brackets after ≈: the same amount, converted by molar mass.

System: Mycobacterium tuberculosis
Experiment: Antimycobacterial activity against multi-drug resistant Mycobacterium tuberculosis
Format: functional

Row | Molecule | MIC
1 | CC(=O)NC[C@H]1CN(c2ccc(N3CCOCC3)c(F)c2)C(=O)O1 [LINEZOLID] | 0.125 µg/mL (≈ 0.371 µM)
2 | H-GWLDVAKKIGKAAFNVAKNFI-OH | < 0.98 µg/mL
